Measured values: the supplement of paper PMC6045584
± gives the standard deviation of the averaged measurements.

Assays:
[1] = compound: CCN(CC)CCCCNc1ncc2cc(-c3cc(OC)cc(OC)c3)c(NC(=O)NC(C)(C)C)nc2n1; test: surviving fraction relative to DMSO-only wells; higher = less growth inhibition; conditions: exposure time: 5 days
Method in brief: (§1)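 Five days of continuous inhibitor exposure, at 0.5, 1, 5, 10, 50, 100, 500 and 1000 nM, followed a 24-hour period after log-phase tumour cell lines were seeded at 250–500 cells per well in 384-well plates. Surviving fraction was derived from CellTiter-Glo luminescence relative to the median of DMSO-only wells. Plates were read after 10 minutes at room temperature, and lines screened three times were kept only if replicate Pearson r >0.7 and median Z' >0.3.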

SALINOMYCIN = compound: CC[C@@H](C(=O)[C@@H](C)[C@@H](O)[C@H](C)[C@@H]1O[C@@H]([C@@H](CC)C(=O)O)CC[C@@H]1C)[C@H]1O[C@]2(C=C[C@@H](O)[C@]3(CC[C@@](C)([C@H]4CC[C@](O)(CC)[C@H](C)O4)O3)O2)[C@H](C)C[C@@H]1C [SALINOMYCIN]; test: as above; conditions: exposure time: 5 days
Method in brief: as §1

| Test System | surviving fraction ([1]; 0.5 nM) | surviving fraction ([1]; 1 nM) | surviving fraction ([1]; 5 nM) | surviving fraction ([1]; 10 nM) | surviving fraction ([1]; 50 nM) | surviving fraction ([1]; 100 nM) | surviving fraction ([1]; 500 nM) | surviving fraction ([1]; 1000 nM) | surviving fraction (SALINOMYCIN; 0.5 nM) | surviving fraction (SALINOMYCIN; 1 nM) | surviving fraction (SALINOMYCIN; 5 nM) | surviving fraction (SALINOMYCIN; 10 nM) | surviving fraction (SALINOMYCIN; 50 nM) | surviving fraction (SALINOMYCIN; 100 nM) | surviving fraction (SALINOMYCIN; 500 nM) | surviving fraction (SALINOMYCIN; 1000 nM) |
| --- | --- | --- | --- | --- | --- | --- | --- | --- | --- | --- | --- | --- | --- | --- | --- | --- |
| HCC1395 BREAST | 0.991 ± 0.2 | 0.785 ± 0.093 | 0.968 ± 0.14 | 0.9 ± 0.021 | 0.872 ± 0.14 | 0.867 ± 0.074 | 0.826 ± 0.17 | 0.818 ± 0.18 | 1.06 ± 0.1 | 1.26 ± 0.26 | 1.17 ± 0.11 | 1.05 ± 0.15 | 1.16 ± 0.13 | 1.11 ± 0.041 | 0.843 ± 0.13 | 0.751 ± 0.16 |
| HCC1806 BREAST | 1.11 ± 0.012 | 0.967 ± 0.1 | 1.11 ± 0.065 | 1.14 ± 0.033 | 1.11 ± 0.089 | 1.07 ± 0.043 | 1.06 ± 0.13 | 1.1 ± 0.095 | 0.957 ± 0.25 | 0.695 ± 0.59 | 0.819 ± 0.58 | 0.709 ± 0.61 | 0.965 ± 0.17 | 0.873 ± 0.04 | 0.33 ± 0.056 | 0.223 ± 0.0067 |
| HCC1954 BREAST | 1.01 ± 0.021 | 1.04 ± 0.04 | 0.945 ± 0.058 | 1.11 ± 0.051 | 1.08 ± 0.041 | 1.04 ± 0.2 | 0.829 ± 0.072 | 0.951 ± 0.11 | 0.944 ± 0.29 | 0.82 ± 0.39 | 0.919 ± 0.36 | 1.03 ± 0.088 | 0.953 ± 0.011 | 0.725 ± 0.04 | 0.295 ± 0.0032 | 0.172 ± 0.023 |
| HCT15 LARGE INTESTINE | 0.875 ± 0.033 | 0.981 ± 0.02 | 0.971 ± 0.025 | 1.01 ± 0.012 | 0.963 ± 0.027 | 0.9977 ± 0.0093 | 0.987 ± 0.011 | 1.06 ± 0.047 | 0.933 ± 0.022 | 0.843 ± 0.059 | 0.894 ± 0.028 | 0.589 ± 0.016 | 1.03 ± 0.041 | 0.964 ± 0.015 | 0.893 ± 0.032 | 0.442 ± 0.029 |
| HELA CERVIX | 0.979 ± 0.028 | 0.994 ± 0.034 | 0.971 ± 0.042 | 0.984 ± 0.019 | 1.03 ± 0.047 | 1.07 ± 0.065 | 1.06 ± 0.023 | 1.13 ± 0.075 | 0.974 ± 0.053 | 0.936 ± 0.068 | 0.97 ± 0.059 | 0.906 ± 0.041 | 1.03 ± 0.06 | 0.885 ± 0.056 | 0.942 ± 0.056 | 0.55 ± 0.045 |
| HOS BONE | 0.99 ± 0.019 | 1.01 ± 0.013 | 0.9947 ± 0.0083 | 1.03 ± 0.022 | 0.9823 ± 0.005 | 1.01 ± 0.015 | 0.9423 ± 0.0071 | 0.927 ± 0.025 | 0.99 ± 0.0076 | 0.969 ± 0.0052 | 0.997 ± 0.023 | 0.966 ± 0.0082 | 1.03 ± 0.012 | 0.858 ± 0.032 | 0.0367 ± 0.0031 | 0.0627 ± 0.019 |
| HOSMNG BONE | 1.02 ± 0.09 | 1 ± 0.072 | 0.994 ± 0.04 | 1.01 ± 0.062 | 0.996 ± 0.062 | 1.02 ± 0.11 | 1.02 ± 0.041 | 1.02 ± 0.065 | 0.987 ± 0.1 | 0.945 ± 0.13 | 1.03 ± 0.086 | 0.985 ± 0.15 | 1.05 ± 0.13 | 0.993 ± 0.18 | 0.909 ± 0.09 | 0.511 ± 0.12 |
| HSSYII SYNOVIAL | 0.799 ± 0.027 | 0.9 ± 0.044 | 0.886 ± 0.029 | 0.784 ± 0.05 | 0.475 ± 0.013 | 0.402 ± 0.007 | 0.274 ± 0.005 | 0.26 ± 0.0082 | 0.892 ± 0.033 | 0.842 ± 0.027 | 0.864 ± 0.043 | 0.582 ± 0.026 | 0.94 ± 0.017 | 0.743 ± 0.033 | 0.0705 ± 0.0015 | 0.0267 ± 0.0019 |
| HT1080 SOFT TISSUE | 1.036 ± 0.009 | 1.03 ± 0.024 | 1.02 ± 0.046 | 1 ± 0.025 | 1.03 ± 0.021 | 1.01 ± 0.021 | 1.03 ± 0.059 | 1.07 ± 0.029 | 1.03 ± 0.034 | 1.02 ± 0.015 | 1.03 ± 0.024 | 1.05 ± 0.031 | 1.06 ± 0.03 | 1.03 ± 0.089 | 0.78 ± 0.035 | 0.557 ± 0.018 |
| HU09 BONE | 1 ± 0.045 | 1.01 ± 0.047 | 0.928 ± 0.028 | 1.02 ± 0.12 | 0.942 ± 0.061 | 0.921 ± 0.072 | 0.72 ± 0.011 | 0.715 ± 0.065 | 1.06 ± 0.035 | 1.01 ± 0.019 | 1.12 ± 0.14 | 1.03 ± 0.091 | 1.04 ± 0.12 | 0.897 ± 0.077 | 0.476 ± 0.036 | 0.271 ± 0.0068 |
